From BindingDB's records for PubMed 2498315 (University of California San Diego, 1989)

Molecular target: Phospholipase A2 (Homo sapiens, UniProt P04054)
Test: Phospholipase A2 Vesicle Assay
Conditions: pH 9; 40 °C
Source text: Inhibition assay using phospholipase A2.

Phospholipase A2, sequence (P04054 whole entry): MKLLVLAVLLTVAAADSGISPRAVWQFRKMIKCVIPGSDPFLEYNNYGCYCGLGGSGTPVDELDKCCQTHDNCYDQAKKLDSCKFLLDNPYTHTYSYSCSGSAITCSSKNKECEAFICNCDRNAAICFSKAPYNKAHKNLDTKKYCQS

Structure (SMILES): O=C(CBr)c1ccc(Br)cc1 [2-bromo-1-(4-bromophenyl)ethan-1-one]
- IC50: 550 µM

Structure (SMILES): CCCCCCCCCCC/C=C/C(C)(C)/C=C/CCCC(=O)O [7,7-dimethyl-5,8-eicosadienoic acid]
- IC50: 16 µM

Structure (SMILES): CC(C)=CCC/C(C)=C/C/C(C=O)=C\CCC1=CC(=O)OC1O (stereo not drawn) [Manoalogue]
- IC50: 26 µM
